# Experiments:
# human ETB receptor = biological target: T1, human ETB receptor (Homo sapiens, UniProt P24530); experiment: In vitro antagonistic effect against human ETB receptor, Ca2+ signal in transfected CHO cells; type: cell-based; conditions: response to 0.3 nM endothelin-1
# T1 construct: host or cells: CHO cells
# T1 sequence (P24530 27-442): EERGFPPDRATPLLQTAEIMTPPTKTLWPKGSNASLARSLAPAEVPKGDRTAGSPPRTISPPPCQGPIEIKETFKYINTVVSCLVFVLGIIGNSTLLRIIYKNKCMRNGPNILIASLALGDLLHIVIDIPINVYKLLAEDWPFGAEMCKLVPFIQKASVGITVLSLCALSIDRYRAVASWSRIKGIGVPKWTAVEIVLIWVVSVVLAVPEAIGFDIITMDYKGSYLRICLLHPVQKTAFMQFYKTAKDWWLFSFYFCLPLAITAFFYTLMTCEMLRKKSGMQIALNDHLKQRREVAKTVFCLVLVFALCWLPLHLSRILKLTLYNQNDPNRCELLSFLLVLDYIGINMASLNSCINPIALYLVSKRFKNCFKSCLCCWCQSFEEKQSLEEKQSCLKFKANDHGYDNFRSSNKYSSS
# Method: Antagonist activity of the compound against human ETB receptors expressed in transfected CHO cells was evaluated by measuring the effect of the compound on the changes in the cytoplasmic Ca^2+ ion signal induced by human ETB receptor agonists. The functional activity of the ETB receptor antagonistic effect was tested in Eurofins-Cerep SA according to current standard procedures.
# 1. Cells were suspended in DMEM buffer (Invitrogen) and then distributed in 384-well plate (100 μL/well) at a density of 3×10^4 cells/well;
# (§1) 2. Probenecid in HBSS buffer (Invitrogen) supplemented with 20 mM Hepes (Invitrogen) (pH 7.4) was mixed with fluorescent probe (Fluo4 NW, Invitrogen), the mixture was added to each wells, then balanced with cells at 37° C. for 60 minutes, and then balanced with cells at 22° C. for 15 minutes;
# (§2) 3. The test plate was placed in a microplate reader (CellLux, PerkinElmer), a DMSO solution or HBSS buffer with an appropriate concentration of the test compound and the positive control was added, and 0.3 nM endothelin-1 or HBSS buffer (base control) was added after 5 minutes, and then the change in fluorescence intensity proportional to the concentration of Ca^2+ ions of […] was measured;
# 4. Results were shown as the percent inhibition of control response to 0.3 nM endothelin-1;
# 5. Standard positive control was BQ-788, several concentrations were tested in each experiments. The data was analyzed using Prism to generate a concentration-response curve, and IC50 values of the compounds were calculated.
# human ETA receptor = biological target: T2, human ETA receptor (Homo sapiens, UniProt P25101); experiment: In vitro antagonistic effect against human ETA receptor, Ca2+ signal in SK-N-MC cells; type: cell-based; conditions: for IC50: SK-N-MC cells, response to 1 nM endothelin-1; for ETA/ETB selectivity: ratio of ETB IC50 to ETA IC50
# T2 construct: endogenously expressed human ETA receptors in SK-N-MC cells; host or cells: SK-N-MC cells
# T2 sequence (P25101 21-427): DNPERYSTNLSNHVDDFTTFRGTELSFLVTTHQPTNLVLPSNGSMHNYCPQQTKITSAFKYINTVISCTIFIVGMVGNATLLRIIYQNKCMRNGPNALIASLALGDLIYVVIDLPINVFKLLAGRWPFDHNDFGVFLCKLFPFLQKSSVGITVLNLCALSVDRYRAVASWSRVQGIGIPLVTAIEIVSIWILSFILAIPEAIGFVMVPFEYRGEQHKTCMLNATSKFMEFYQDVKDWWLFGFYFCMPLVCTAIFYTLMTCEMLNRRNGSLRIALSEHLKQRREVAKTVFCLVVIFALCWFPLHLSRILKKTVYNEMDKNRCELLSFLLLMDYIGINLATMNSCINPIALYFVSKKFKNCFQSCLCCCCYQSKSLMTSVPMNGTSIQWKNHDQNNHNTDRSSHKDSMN
# Method: Experimental Embodiment 1: In Vitro Test of Antagonistic Effect Against Human ETA Receptor
# Antagonistic activity of the compounds against endogenously expressed human ETA receptors in SK-N-MC cells was evaluated by measuring the effect of compounds on the changes in cytoplasmic Ca^2+ ion signal induced by human ETA receptor agonists using fluorescence detection methods. The functional activity of the ETA receptor antagonistic effect was tested in Eurofins-Cerep SA according to current standard procedures.
# 1. Cells were suspended in Dulbecco's modified Eagle medium solution (DMEM, Invitrogen) supplemented with 1% FCSd, then distributed in 384-well plate (100 μL/well) at a density of 5×10^4 cells/well;
# as §1, with “Hank's balanced salt solution (HBSS, Invitrogen)” for “HBSS buffer (Invitrogen)”, “4-(2-hydroxyethyl)piperazine-1-ethanesulfonic acid (Hepes, Invitrogen)” for “Hepes (Invitrogen)”
# as §2, with “1” for “0.3”
# 5. Standard positive control was BQ-123, several concentrations were tested in each experiments. The data was analyzed using Prism to generate a concentration-response curve, and IC50 values of the compounds were calculated.
SMILES,IC50 (human ETB receptor) [nM],IC50 (human ETA receptor) [nM],ETA/ETB selectivity (human ETA receptor)
CCNS(=O)(=O)Nc1ncnc(OCCOc2ncc(Br)cn2)c1-c1ccc2scnc2c1 [WX002],> 300000,2.8,>107000
O=S(=O)(NCC(F)(F)F)Nc1ncnc(OCCOc2ncc(Br)cn2)c1-c1ccc2scnc2c1 [WX003],71000,2.6,27300
CCCOCCNS(=O)(=O)Nc1ncnc(OCCOc2ncc(Br)cn2)c1-c1ccc2scnc2c1 [WX006],> 300000,1.3,>230700
COCCCNS(=O)(=O)Nc1ncnc(OCCOc2ncc(Br)cn2)c1-c1ccc2scnc2c1 [WX007],35000,2.1,16600
CCCNS(=O)(=O)Nc1ncnc(OCCOc2ncc(Br)cn2)c1-c1ccc2c(c1)OCO2 [WX008],280000,0.43,651100
CCNS(=O)(=O)Nc1ncnc(OCCOc2ncc(Br)cn2)c1-c1ccc2c(c1)OCO2 [WX009],71000,2.3,30800
O=S(=O)(NCC(F)(F)F)Nc1ncnc(OCCOc2ncc(Br)cn2)c1-c1ccc2c(c1)OCO2 [WX010],61000,1.5,40600
O=S(=O)(NCC1CC1)Nc1ncnc(OCCOc2ncc(Br)cn2)c1-c1ccc2c(c1)OCO2 [WX014],35000,1.3,26900
CCOCCNS(=O)(=O)Nc1ncnc(OCCOc2ncc(Br)cn2)c1-c1ccc2c(c1)OCO2 [WX015],> 300000,0.86,>348800
O=S(=O)(NCC1CCOCC1)Nc1ncnc(OCCOc2ncc(Br)cn2)c1-c1ccc2c(c1)OCO2 [WX019],> 30000,0.44,>68100
O=S(=O)(NCC1CCCO1)Nc1ncnc(OCCOc2ncc(Br)cn2)c1-c1ccc2c(c1)OCO2 (stereo not drawn) [WX021],46000,0.34,135200
CS(=O)(=O)CCNS(=O)(=O)Nc1ncnc(OCCOc2ncc(Br)cn2)c1-c1ccc2c(c1)OCO2 [WX022],76000,2.1,36100
CCCCNS(=O)(=O)Nc1ncnc(OCCOc2ncc(Br)cn2)c1-c1ccc2ccnn2c1 [WX026],73000,1.1,66300
O=S(=O)(NCC1CC1)Nc1ncnc(OCCOc2ncc(Br)cn2)c1-c1ccc2ccnn2c1 [WX027],68000,2.8,24200
O=S(=O)(Nc1ncnc(OCCOc2ncc(Br)cn2)c1-c1ccc2c(c1)OCC2)N1CCC2(CC1)CC2 [WX028],> 100000,2,>50000
O=S(=O)(Nc1ncnc(OCCOc2ncc(Br)cn2)c1-c1ccc2c(c1)OCC2)N1C[C@H]2C[C@H]2C1 [WX031],> 100000,1.1,>90900
O=S(=O)(Nc1ncnc(OCCOc2ncc(Br)cn2)c1-c1ccc2c(c1)OCC2)N1CC2(COC2)C1 [WX032],> 30000,3,>10000
CCCNS(=O)(=O)Nc1ncnc(OCCOc2ncc(Br)cn2)c1-c1ccc2c(c1)CCO2 [WX033],> 30000,1.6,>18700
COCCNS(=O)(=O)Nc1ncnc(OCCOc2ncc(Br)cn2)c1-c1ccc2c(c1)CCO2 [WX034],200000,3.6,55500

# Second part, the compound after the results:
IC50 (human ETB receptor) [nM],IC50 (human ETA receptor) [nM],ETA/ETB selectivity (human ETA receptor),SMILES
15000,0.32,46800,"O=S(=O)(NCC1CCCO1)Nc1ncnc(OCCOc2ncc(Br)cn2)c1-c1ccc2c(c1)OCO2 (single isomer, unassigned) [WX023]"
6700,0.25,26800,"O=S(=O)(NCC1CCCO1)Nc1ncnc(OCCOc2ncc(Br)cn2)c1-c1ccc2c(c1)OCO2 (single isomer, unassigned) [WX024]"
21000,1.5,14000,CCCCNS(=O)(=O)Nc1ncnc(OCCOc2ncc(Br)cn2)c1-c1ccc2scnc2c1 [WX004]
22000,1,22000,O=S(=O)(Nc1ncnc(OCCOc2ncc(Br)cn2)c1-c1ccc2c(c1)OCO2)NC1CCC1 [WX011]
16000,0.17,94100,CCCCNS(=O)(=O)Nc1ncnc(OCCOc2ncc(Br)cn2)c1-c1ccc2c(c1)OCO2 [WX012]
22000,0.79,27800,CCCOCCNS(=O)(=O)Nc1ncnc(OCCOc2ncc(Br)cn2)c1-c1ccc2c(c1)OCO2 [WX016]
16000,0.45,35500,COCCCNS(=O)(=O)Nc1ncnc(OCCOc2ncc(Br)cn2)c1-c1ccc2c(c1)OCO2 [WX017]
9600,0.76,12600,CCOCCCNS(=O)(=O)Nc1ncnc(OCCOc2ncc(Br)cn2)c1-c1ccc2c(c1)OCO2 [WX018]
17000,0.35,48500,O=S(=O)(NCC1CCC1)Nc1ncnc(OCCOc2ncc(Br)cn2)c1-c1ccc2c(c1)OCO2 [WX020]
16000,0.65,24600,CCCNS(=O)(=O)Nc1ncnc(OCCOc2ncc(Br)cn2)c1-c1ccc2c(c1)OCC2 [WX029]
33000,1.3,25300,COCCNS(=O)(=O)Nc1ncnc(OCCOc2ncc(Br)cn2)c1-c1ccc2c(c1)OCC2 [WX030]
